Entries after “also recorded” stand apart in the source; their conditions may differ.
What was measured:
[1] = test system: senescent cells in osteoarthritic joint of mice after ACL surgery; assay: Osteoarthritis mouse model (ACL surgery), intra-articular treatment; format: in vivo; conditions: for histopathology: destruction of the proteoglycan layer: Nutlin-3A in C57BL/6J, GCV 2.5 μg intra-articular in 3MR mice
Experimental: Parallel studies were performed. One study investigated the effect of eliminating senescent cells with ganciclovir (GCV) in 3MR mice. Mice underwent surgery to cut the anterior cruciate ligament of one rear limb to induce osteoarthritis in the joint of that limb. During week 2 post-surgery, 3MR mice received 2.5 μg GCV to the operated knee by intra-articular injection, qd for 5 days, with a 2nd treatment (2.5 μg GCV qd for 5 days) during week 4 post-surgery. At the end of 4 weeks post-surgery, operated joints of the mice were monitored for presence of senescent cells, assessed for function, monitored for markers of inflammation, and underwent histological assessment.
In a parallel study, C57BL/6J mice underwent surgery to cut the anterior cruciate ligament of one rear limb to induce osteoarthritis in the joint of that limb. During week 3 and week 4 post-surgery, the mice were treated with 5.8 μg of Nutlin-3A (n=7) per operated knee by intra-articular injection, qod for 2 weeks. At the end of 4 weeks post-surgery, joints of the mice were monitored for presence of senescent cells, assessed for function, monitored for markers of inflammation, and underwent histological assessment.
Two control groups of mice were included in the studies performed: one group comprising C57BL/6J or 3MR mice that had undergone a sham surgery (n=3) (i.e., surgical procedures followed except for cutting the ACL) and intra-articular injections of vehicle parallel to the GCV-treated group; and one group comprising C57BL/6J or 3MR mice that had undergone an ACL surgery and received intra-articular injections of vehicle (n=5) parallel to the GCV-treated group.
RNA from the operated joints of mice from the Nutlin-3A treated mice was analyzed for expression of SASP factors (mmp3, IL-6) and senescence markers (p16). qRT-PCR was performed to detect mRNA levels. […] RNA from the operated joints of mice was also analyzed for expression of type 2 collagen and compared with expression of actin as a control.
Function of the limbs was assessed 4 weeks post-surgery by a weight bearing test to determine which leg the mice favored (FIG. 39). The mice were allowed to acclimate to the chamber on at least 3 occasions prior to taking measurements. Mice were maneuvered inside the chamber to stand with 1 hind paw on each scale. The weight that was placed on each hind limb was measured over a 3-second period. At least 3 separate measurements were made for each animal at each time point. The results were expressed as the percentage of the weight placed on the operated limb versus the contralateral unoperated limb.
The function of the limbs was also assessed at 4 weeks post-surgery by hotplate analysis to show sensitivity and reaction to pain stimulus. In brief, a mouse was placed on a hotplate at 55° C. When placed on the hot surface of the plate, mice will lift their paws and lick them (paw-lick response) due to attainment of pain threshold. The latency period for the hind limb response (paw-lick response) is recorded as response time.
Histopathology of osteoarthritis induced by ACL surgery illustrated that the proteoglycan layer was destroyed.

[2] = test system: 3MR mice with bleomycin induced lung injury; assay: Bleomycin induced lung injury model; format: in vivo, mouse; conditions: for lung compliance (static and dynamic) / lung elastance: 21 days post-bleomycin, Nutlin-3A data not statistically significant
Experimental: One animal model study assessed the effect of clearance of senescence cells in the transgenic mouse strain 3MR that has bleomycin induced lung injury. […] Control mice were administered saline. The day following bleomycin treatment, ganciclovir (GCV) (25 mg/kg in PBS) was administered. 3MR mice were treated via intraperitoneal injection with ganciclovir for 5 consecutive days, followed by 5 days of rest, followed by a second treatment cycle of 5 consecutive days. Untreated mice received an equal volume of vehicle. At 7, 14, and 21 days post-bleomycin treatment, lung function was assessed by monitoring oxygen saturation using the MouseSTAT PhysioSuite pulse oximeter (Kent Scientific). Animals were anesthetized with isoflurane (1.5%) and a toe clip was applied. Mice were monitored for 30 seconds and the average peripheral capillary oxygen saturation (SpO2) measurement over this duration was calculated. […] At 21 days post-bleomycin treatment, airway hyper-reactivity (AHR) of mice was examined. AHR of mice was measured by methacholine challenge while other parameters of lung function (airway mechanics, lung volume and lung compliance) were determined using a SCIREQ flexiVent ventilator. While under ketamine/xylazine anesthesia and subjected to cannulation of the trachea via a tracheostomy (19Fr blunt Luer cannula), airway resistance (elastance) and compliance of mice were assessed at baseline and in response to increasing concentrations of methacholine (0 to 50 mg/ml in PBS) delivered via nebulization (AeroNeb) as described in Aravamudan et al. (Am. J. Physiol. Lung Cell. Mol. Physiol. (2012) 303:L669-L6810). Animals were maintained at 37° C., and while under muscle paralysis (pancuronium); airway function was measured by using the FlexiVent ventilator and lung mechanics system (SCIREQ, Montreal, Quebec, Canada), which was housed on Stabile 8. […] As shown in FIGS. 60B-C, bleomycin administration reduced static compliance and (dynamic) compliance in vehicle treated mice. […] Mice were euthanized by i.p injection of pentobarbital. Bronchoalveolar lavage (BAL) fluids and lungs is obtained and analyzed. Hydroxyproline content of lungs is measured as described in Christensen et al. (1999, Am. J. Pathol. 155:1773-1779), and quantitative histopathology is performed. RNA is extracted from lung tissue to measure senescence cell markers by qRT-PCR in treated and control mice.

Row | Structure (SMILES) | senescent cells in the joint (p16, IL-6, MMP13 mRNA) ([1]; 5.8 μg per operated knee intra-articular qod for 2 weeks, 4 weeks post-surgery) | weight bearing test (favoring the unoperated hind limb) ([1]; 4 weeks post-surgery) | hotplate paw-lick response time ([1]; 55° C., 4 weeks post-surgery) | histopathology: destruction of the proteoglycan layer [1] | type 2 collagen expression in operated joints ([1]; relative to actin, versus untreated OA surgery mice) | lung compliance (static and dynamic) [2] | lung elastance [2] | peripheral capillary oxygen saturation (SpO2) ([2]; approached normal levels at 21 days post bleomycin)
1 | COc1ccc(C2=N[C@@H](c3ccc(Cl)cc3)[C@@H](c3ccc(Cl)cc3)N2C(=O)N2CCNC(=O)C2)c(OC(C)C)c1 [Nutlin-3a] | clears senescent cells from the joint | abrogates this effect | decreases the response time in a significant manner; also recorded: reduces response time | completely abrogated this effect | drives ab initio collagen production | increased lung compliance | reduced lung elastance | 
2 | Nc1nc(O)c2ncn(COC(CO)CO)c2n1 [ganciclovir] |  |  |  | same impact on pathophysiology of osteoarthritis as Nutlin-3A |  | improved compliance values significantly | reduced lung elastance | higher SpO2 levels

Source: patent US20190022225A1, “PROTOCOL FOR INCREASING LIFE EXPECTANCY IN A TEST SUBJECT” (Mayo Foundation for Medical Education and Research, priority 2015, published 2019)
